Data: patent US20250243189A1, “HERBICIDAL IMIDAZOLE-CONTAINING COMPOUNDS” (SYNGENTA CROP PROTECTION AG, priority 2022, published 2025)

Assays:
Format in all cases: in vivo
Settings in all cases: 250 g/ha, evaluated after 13 days, five-point scale
[1] = system: AMAPA; test: Post-emergence herbicidal glasshouse test
Method: [Worded in the source for another organism; this organism is reported under the same test.] (§1) Seeds of a variety of test species are sown in standard soil in pots Amaranthus retoflexus (AMARE), Echinochloa crus-galli (ECHCG), Setaria faberi (SETFA)). After cultivation for one day (pre-emergence) or after 8 days cultivation (post-emergence) under controlled conditions in a glasshouse (at 24/16° C., day/night; 14 hours light; 65% humidity), the plants are sprayed with an aqueous spray solution derived from the formulation of the technical active ingredient in acetone/water (50:50) solution containing 0.5% Tween 20 (polyoxyethelyene sorbitan monolaurate, CAS RN 9005-64-5). Compounds are applied at 250 g/ha unless otherwise stated. The test plants are then grown in a glasshouse under controlled conditions in a glasshouse (at 24/16° C., day/night; 14 hours light; 65% humidity) and watered twice daily. After 13 days for pre and post-emergence, the test is evaluated for the percentage damage caused to the plant. The biological activities are shown in the following table on a five-point scale (5=81-100%; 4=61-80%; 3=41-60%; 2=21-40%; 1=0-20%).

[2] = system: Amaranthus retoflexus (AMARE); test: Post-emergence herbicidal glasshouse test
Method: as §1

[3] = system: Echinochloa crus-galli (ECHCG); test: Post-emergence herbicidal glasshouse test
Method: as §1

[4] = system: IPOHE; test: Post-emergence herbicidal glasshouse test
Method: as §1

[5] = system: AMAPA; test: Pre-emergence herbicidal glasshouse test
Method: [Worded in the source for another organism; this organism is reported under the same test.] as §1

[6] = system: Amaranthus retoflexus (AMARE); test: Pre-emergence herbicidal glasshouse test
Method: as §1

[7] = system: Echinochloa crus-galli (ECHCG); test: Pre-emergence herbicidal glasshouse test
Method: as §1

[8] = system: IPOHE; test: Pre-emergence herbicidal glasshouse test
Method: as §1

| Compound | percentage damage caused to the plant, AMAPA [1] | percentage damage caused to the plant, AMARE [2] | percentage damage caused to the plant, ECHCG [3] | percentage damage caused to the plant, IPOHE [4] | percentage damage caused to the plant, AMAPA [5] | percentage damage caused to the plant, AMARE [6] | percentage damage caused to the plant, ECHCG [7] | percentage damage caused to the plant, IPOHE [8] |
| --- | --- | --- | --- | --- | --- | --- | --- | --- |
| Cn1ccc(-c2nc(C(F)(F)F)cn2Cc2ncc(Cl)cn2)n1 [Compound 1.004] | 1 (1=0-20%) | 1 (1=0-20%) | 1 (1=0-20%) | 1 (1=0-20%) | 1 (1=0-20%) | 1 (1=0-20%) | 1 (1=0-20%) | 1 (1=0-20%) |
| FC(F)(F)c1cn(Cc2ccc(Cl)cn2)c(-c2ccc(Cl)s2)n1 [Compound 1.047] | 5 (5=81-100%) | 5 (5=81-100%) | 4 (4=61-80%) | 4 (4=61-80%) | 5 (5=81-100%) | 5 (5=81-100%) | 4 (4=61-80%) | 2 (2=21-40%) |
| FC(F)(F)c1cn(Cc2ncc(Cl)cn2)c(-c2sccc2Cl)n1 [Compound 1.002] | 1 (1=0-20%) | 1 (1=0-20%) | 1 (1=0-20%) | 1 (1=0-20%) | 2 (2=21-40%) | 2 (2=21-40%) | 1 (1=0-20%) | 1 (1=0-20%) |
| FC(F)(F)c1cn(Cc2ncc(Cl)cn2)c(-c2cnn(C3CC3)c2)n1 [Compound 1.015] | 4 (4=61-80%) | 5 (5=81-100%) | 4 (4=61-80%) | 5 (5=81-100%) | 5 (5=81-100%) | 5 (5=81-100%) | 5 (5=81-100%) | 5 (5=81-100%) |
| FC(F)(F)c1cn(Cc2ncc(Cl)cn2)c(-c2csc(Cl)c2)n1 [Compound 1.021] | 5 (5=81-100%) | 4 (4=61-80%) | 4 (4=61-80%) | 4 (4=61-80%) | 5 (5=81-100%) | 5 (5=81-100%) | 5 (5=81-100%) | 4 (4=61-80%) |
| Fc1cc(Cl)cnc1Cn1cc(C(F)(F)F)nc1-c1ccc(Cl)s1 [Compound 1.051] | 5 (5=81-100%) | 5 (5=81-100%) | 4 (4=61-80%) | 3 (3=41-60%) | 5 (5=81-100%) | 5 (5=81-100%) | 5 (5=81-100%) | 4 (4=61-80%) |
| FC(F)(F)c1cn(Cc2ncc(Cl)cn2)c(-c2csc(Cl)n2)n1 [Compound 1.009] | 2 (2=21-40%) | 2 (2=21-40%) | 1 (1=0-20%) | 1 (1=0-20%) | 3 (3=41-60%) | 4 (4=61-80%) | 1 (1=0-20%) | 1 (1=0-20%) |
| N#Cc1ccc(Cn2cc(C(F)(F)F)nc2-c2ccc(Cl)s2)nc1 [Compound 1.049] | 5 (5=81-100%) | 5 (5=81-100%) | 4 (4=61-80%) | 4 (4=61-80%) | 5 (5=81-100%) | 5 (5=81-100%) | 4 (4=61-80%) | 5 (5=81-100%) |
| Cc1nnsc1-c1nc(C(F)(F)F)cn1Cc1ncc(Cl)cn1 [Compound 1.007] | 4 (4=61-80%) | 5 (5=81-100%) | 2 (2=21-40%) | 4 (4=61-80%) | 5 (5=81-100%) | 5 (5=81-100%) | 4 (4=61-80%) | 5 (5=81-100%) |
| FC(F)c1cn(Cc2ncc(Cl)cn2)c(-c2cnc(Cl)s2)n1 [Compound 1.071, 2-chloro-5-[1-[(5-chloropyrimidin-2-yl)methyl]-4-(difluoromethyl)imidazol-2-yl]thiazole] | 4 (4=61-80%) | 5 (5=81-100%) | 4 (4=61-80%) | 2 (2=21-40%) | 5 (5=81-100%) | 5 (5=81-100%) | 4 (4=61-80%) | 5 (5=81-100%) |
| Cc1ccc(-c2nc(C(F)(F)F)cn2Cc2ncc(Cl)cn2)s1 [Compound 1.011] | 4 (4=61-80%) | 4 (4=61-80%) | 4 (4=61-80%) | 2 (2=21-40%) | 5 (5=81-100%) | 5 (5=81-100%) | 5 (5=81-100%) | 5 (5=81-100%) |
| FC(F)(F)c1cn(Cc2ncc(Cl)cn2)c(-c2nccs2)n1 [Compound 1.022] | 1 (1=0-20%) | 1 (1=0-20%) | 1 (1=0-20%) | 1 (1=0-20%) | 1 (1=0-20%) | – | 1 (1=0-20%) | 1 (1=0-20%) |
| FC(F)Oc1cccc(Cn2cc(C(F)(F)F)nc2-c2ccc(Cl)s2)n1 [Compound 1.048] | 1 (1=0-20%) | 1 (1=0-20%) | 1 (1=0-20%) | 1 (1=0-20%) | 1 (1=0-20%) | 1 (1=0-20%) | 1 (1=0-20%) | – |
| Cc1nc(-c2nc(C(F)(F)F)cn2Cc2ncc(Cl)cn2)co1 [Compound 1.018] | 1 (1=0-20%) | 2 (2=21-40%) | 1 (1=0-20%) | 2 (2=21-40%) | – | 2 (2=21-40%) | 1 (1=0-20%) | 1 (1=0-20%) |
| FC(F)(F)c1cn(Cc2ncc(Cl)cn2)c(-c2cscn2)n1 [Compound 1.023] | 1 (1=0-20%) | 1 (1=0-20%) | 1 (1=0-20%) | 2 (2=21-40%) | 1 (1=0-20%) | – | 1 (1=0-20%) | 1 (1=0-20%) |
